Test results reported in PubChem BioAssay (NCI).
Where “and” joins values, the source holds several entries; their conditions need not be identical. Equal entries are not always repeated.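 Results reflect a 48-hour exposure of cells in 96-well plates to compound at five concentrations. At the GI50, growth is halved. TGI: concentration producing complete growth inhibition.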

Legend:
Assay in all cases: NCI-60 cell line screen, 48 h
MDA-N = tested on: MDA-N
RPMI-8226 leukemia = tested on: RPMI-8226 leukemia
DLD-1 colon = tested on: DLD-1 colon
DMS 114 small cell lung = tested on: DMS 114 small cell lung
DMS 273 small cell lung = tested on: DMS 273 small cell lung
HOP-18 NSCLC = tested on: HOP-18 NSCLC
KM20L2 colon = tested on: KM20L2 colon
LXFL 529 NSCLC = tested on: LXFL 529 NSCLC
M19-MEL melanoma = tested on: M19-MEL melanoma
RXF-631 renal = tested on: RXF-631 renal
SNB-78 CNS = tested on: SNB-78 CNS
XF 498 CNS = tested on: XF 498 CNS

SMILES: COc1cc(C2c3[nH]c4ccccc4c3C[C@H]3COC(=O)N23)cc(OC)c1OC (some centres not stated)
- TGI (MDA-N): 0.0492 µM
- GI50 (RPMI-8226 leukemia): < 0.01 µM
- TGI (RPMI-8226 leukemia): < 0.01 µM

SMILES: CC1CC[C@]2(C(=O)O)CCC3(COC(=O)/C=C\c4ccc(O)cc4)C(=CCC4[C@@]5(C)CC[C@H](O)C(C)(C)C5CC[C@]43C)[C@@H]2[C@H]1C (some centres not stated)
- TGI (DLD-1 colon): 30.8 µM
- TGI (DMS 114 small cell lung): > 100 µM
- TGI (DMS 273 small cell lung): 50.3 µM
- TGI (HOP-18 NSCLC): 69.8 µM
- TGI (KM20L2 colon): 33.6 µM
- TGI (LXFL 529 NSCLC): > 100 µM
- TGI (M19-MEL melanoma): 50.8 µM
- TGI (RPMI-8226 leukemia): > 100 µM
- TGI (RXF-631 renal): 77.9 µM
- TGI (SNB-78 CNS): > 100 µM

SMILES: C=C1C(=O)O[C@H]2[C@H]1CC/C(CNC(=O)Cc1c[nH]c3ccccc13)=C\CC[C@@]1(C)O[C@@H]21
- GI50 (RPMI-8226 leukemia): 0.486 µM
- TGI (RPMI-8226 leukemia): 3.96 µM

SMILES: Cc1ccc([N+](=O)[O-])cc1NC(=O)Nc1cccc(F)c1
- GI50 (RPMI-8226 leukemia): 2.82 µM
- TGI (RPMI-8226 leukemia): 20.7 µM

SMILES: O=C(Nc1ccc(Cl)cc1Cl)C1C(=O)N(c2ccc(Cl)cc2Cl)C(=O)/C1=N\Nc1ccc([N+](=O)[O-])cc1[N+](=O)[O-] (configuration not stated)
- TGI (DLD-1 colon): > 100 µM
- TGI (DMS 114 small cell lung): 66.8 µM
- TGI (DMS 273 small cell lung): > 100 µM
- TGI (HOP-18 NSCLC): > 100 µM
- TGI (KM20L2 colon): > 100 µM
- TGI (LXFL 529 NSCLC): > 100 µM
- TGI (M19-MEL melanoma): > 100 µM
- TGI (RPMI-8226 leukemia): 69.5 µM
- TGI (RXF-631 renal): > 100 µM
- TGI (SNB-78 CNS): > 100 µM

SMILES: CCN(CC)CCOCC[C@H]1CC[C@H]2[C@@H]3[C@H](C)Cc4cc(OS(N)(=O)=O)ccc4[C@H]3CC[C@]12C
- GI50 (RPMI-8226 leukemia): 0.704 µM
- TGI (RPMI-8226 leukemia): 2.67 µM

SMILES: O=C1c2ccccc2-c2c1c1ccccc1c(=O)n2CCCCNCCCn1c2c(c3ccccc3c1=O)C(=O)c1ccccc1-2
- GI50 (RPMI-8226 leukemia): 0.0193 µM
- TGI (RPMI-8226 leukemia): 0.755 µM

SMILES: COc1ccc2[nH]c(=O)c3c4ccccc4cn3c2c1
- GI50 (RPMI-8226 leukemia): 0.358 µM
- TGI (RPMI-8226 leukemia): 2.03 µM

SMILES: CCSCC1CC(O)(c2ccccc2)C(c2ccccc2)C(c2ccc(Cl)cc2)O1 (configuration not stated)
- GI50 (RPMI-8226 leukemia): 1.56 µM
- TGI (RPMI-8226 leukemia): 4.66 µM

SMILES: Cc1cccc(NC(=O)CCc2ccc(N3C(N)=NC(N)=NC3(C)C)cc2)c1
- GI50 (RPMI-8226 leukemia): 3.17 µM
- TGI (RPMI-8226 leukemia): > 100 µM

SMILES: O=C(Nc1ccccc1-c1n[nH]c(=S)[nH]c1=O)C(F)(F)F
- TGI (DLD-1 colon): > 100 µM
- TGI (DMS 114 small cell lung): > 100 µM
- TGI (DMS 273 small cell lung): > 100 µM
- TGI (LXFL 529 NSCLC): > 100 µM
- TGI (M19-MEL melanoma): > 100 µM
- TGI (SNB-78 CNS): > 100 µM
- TGI (XF 498 CNS): > 100 µM

SMILES: Cc1c(N2CCCC2)cc2c(c1NC(=O)c1ccccc1Cl)C(C)(C)CC2(C)C
- TGI (MDA-N): 28.5 µM
- TGI (RPMI-8226 leukemia): 34.2 µM

SMILES: COc1ccc(C2CC(c3cc(OC)c(OC)c(OC)c3)=NO2)cc1OCCCCOc1cc2c(cc1OC)C(=O)N1CCC[C@H]1C=N2 (some centres not stated)
- GI50 (RPMI-8226 leukemia): 1.43 µM
- TGI (RPMI-8226 leukemia): 4.31 µM

SMILES: ON/N=C/c1cc2c(cc1Br)OCO2
- TGI (DLD-1 colon): > 386 µM
- TGI (DMS 114 small cell lung): > 386 µM
- TGI (DMS 273 small cell lung): > 386 µM
- TGI (HOP-18 NSCLC): > 386 µM
- TGI (KM20L2 colon): > 386 µM
- TGI (LXFL 529 NSCLC): > 386 µM
- TGI (M19-MEL melanoma): > 386 µM
- TGI (RPMI-8226 leukemia): > 386 µM
- TGI (RXF-631 renal): > 386 µM

SMILES: CCN1CCN(Cc2ccc(-c3cc4c(N[C@H](C)c5ccccc5)ncnc4[nH]3)cc2)CC1
- GI50 (RPMI-8226 leukemia): 3.54 µM and 2.13 µM
- TGI (RPMI-8226 leukemia): 13.4 µM and 6.94 µM

SMILES: COc1cccc2c1C(=O)C=CC2=O
- TGI (DLD-1 colon): 39 µM
- TGI (DMS 114 small cell lung): 10.3 µM
- TGI (DMS 273 small cell lung): 30.8 µM
- TGI (HOP-18 NSCLC): 23.6 µM
- TGI (KM20L2 colon): 30.6 µM
- TGI (LXFL 529 NSCLC): 6.37 µM
- TGI (M19-MEL melanoma): 16.1 µM
- TGI (RPMI-8226 leukemia): 7.23 µM
- TGI (SNB-78 CNS): 9.3 µM
- TGI (XF 498 CNS): 5.25 µM

SMILES: F
- GI50 (RPMI-8226 leukemia): 3060 µM
- TGI (RPMI-8226 leukemia): > 6870 µM

SMILES: O=[N+]([O-])c1ccc(S(=O)(=O)Cc2ccccc2)c([N+](=O)[O-])c1
- TGI (MDA-N): 4.09 µM
- TGI (RPMI-8226 leukemia): 5.78 µM

SMILES: O=C1C(Cl)=C(Nc2cccc(Cl)c2)C(=O)N1Cc1ccccc1
- GI50 (RPMI-8226 leukemia): 1.37 µM
- TGI (RPMI-8226 leukemia): 7.9 µM

SMILES: O=C(Nc1c(O)[nH]c(=S)[nH]c1=O)c1ccccc1F
- TGI (DLD-1 colon): > 100 µM
- TGI (DMS 114 small cell lung): > 100 µM
- TGI (HOP-18 NSCLC): > 100 µM
- TGI (KM20L2 colon): > 100 µM
- TGI (LXFL 529 NSCLC): > 100 µM
- TGI (M19-MEL melanoma): > 100 µM
- TGI (RPMI-8226 leukemia): > 100 µM
- TGI (RXF-631 renal): > 100 µM
- TGI (SNB-78 CNS): > 100 µM

SMILES: CC(C)(C)OC1=C(OC(C)(C)C)C(O)(c2ccccc2)C1=O (configuration not stated)
- TGI (DLD-1 colon): > 100 µM
- TGI (DMS 114 small cell lung): > 100 µM
- TGI (DMS 273 small cell lung): > 100 µM
- TGI (HOP-18 NSCLC): > 100 µM
- TGI (LXFL 529 NSCLC): > 100 µM
- TGI (M19-MEL melanoma): > 100 µM
- TGI (RPMI-8226 leukemia): > 100 µM
- TGI (RXF-631 renal): > 100 µM
- TGI (SNB-78 CNS): > 100 µM

SMILES: COc1cc(NS(C)(=O)=O)ccc1Nc1c2ccc([N+](=O)[O-])cc2nc2c(C)cccc12
- GI50 (RPMI-8226 leukemia): 0.18 µM
- TGI (RPMI-8226 leukemia): 1.99 µM

SMILES: COC(=O)C1=C(c2ccc(OC)c(OC)c2)OC(c2ccc(OC)c(OC)c2)C1 (configuration not stated)
- TGI (DLD-1 colon): > 100 µM
- TGI (DMS 114 small cell lung): 77.5 µM
- TGI (DMS 273 small cell lung): > 100 µM
- TGI (HOP-18 NSCLC): > 100 µM
- TGI (KM20L2 colon): > 100 µM
- TGI (LXFL 529 NSCLC): 62.1 µM
- TGI (M19-MEL melanoma): > 100 µM
- TGI (RPMI-8226 leukemia): > 100 µM
- TGI (SNB-78 CNS): > 100 µM
- TGI (XF 498 CNS): 65.2 µM

SMILES: CN1C(=O)CC(c2cccc(C3CC(=O)N(C)C3=O)n2)C1=O (configuration not stated)
- TGI (DLD-1 colon): > 100 µM
- TGI (DMS 114 small cell lung): > 100 µM
- TGI (DMS 273 small cell lung): > 100 µM
- TGI (HOP-18 NSCLC): > 100 µM
- TGI (KM20L2 colon): > 100 µM
- TGI (LXFL 529 NSCLC): > 100 µM
- TGI (M19-MEL melanoma): > 100 µM
- TGI (SNB-78 CNS): > 100 µM

SMILES: CC[C@]1(O)CC(OC2CC(N(C)C)C(O)C(C)O2)c2c(cc3c(c2O)C(=O)c2c(O)cccc2C3=O)[C@@H]1C(=O)OC (some centres not stated)
- TGI (MDA-N): 1.92 µM

SMILES: C[C@@H]1COCCN1c1cc(C2([S@](C)(=N)=O)CC2)nc(-c2ccnc3[nH]ccc23)n1
- GI50 (RPMI-8226 leukemia): 3.96 µM and 6.76 µM
- TGI (RPMI-8226 leukemia): 47.5 µM and > 10 µM

SMILES: NCCNc1c2c(c(NCCN)c3c(CO)c[nH]c13)C(=O)c1ccccc1C2=O
- GI50 (RPMI-8226 leukemia): 31.3 µM
- TGI (RPMI-8226 leukemia): > 100 µM

SMILES: CC(C)(C)NNC(=O)/C(=C/c1ccc([N+](=O)[O-])cc1)NC(=O)c1ccccc1
- TGI (DLD-1 colon): > 100 µM
- TGI (DMS 114 small cell lung): 35.9 µM
- TGI (DMS 273 small cell lung): 80 µM
- TGI (HOP-18 NSCLC): > 100 µM
- TGI (KM20L2 colon): > 100 µM
- TGI (LXFL 529 NSCLC): > 100 µM
- TGI (M19-MEL melanoma): > 100 µM
- TGI (RPMI-8226 leukemia): > 100 µM
- TGI (SNB-78 CNS): > 100 µM
- TGI (XF 498 CNS): > 100 µM

SMILES: Clc1ccc(CSC(Cn2ccnc2)c2ccc(Cl)cc2Cl)cc1 (configuration not stated)
- GI50 (RPMI-8226 leukemia): 1.38 µM
- TGI (RPMI-8226 leukemia): 4.49 µM

SMILES: CN(C)CCOc1ccc(-c2nc(-c3ccc4c(c3)CC/C4=N\O)c(-c3ccncc3)[nH]2)cc1
- GI50 (RPMI-8226 leukemia): 5.75 µM and 16.8 µM
- TGI (RPMI-8226 leukemia): 13.7 µM and 77 µM
